{"source": "patent US9597408B2", "about": "“Peptide-mediated non-covalent delivery of active agents across the blood-brain barrier” (Mayo Foundation for Medical Education and Research, priority 2009, dated 2017)", "key": {"BBB [1]": {"test_system": "BBB", "test": "Necessity of covalent linking of K16 and ApoE moieties: β-galactosidase staining of brain sections", "type": "in vivo, mice", "conditions": "β-galactosidase mixed with the peptide(s); FIG. 7", "procedure": "Delivery of β-galactosidase in brain with K16 peptide (SEQ ID NO: 4) alone (A), with ApoE peptide only (B), with K16 peptide (SEQ ID NO: 4)+ApoE peptide (C), and with K16APoE peptide (SEQ ID NO: 22) (D).\nThe necessity of covalent linking of the K16 (SEQ ID NO: 4) and ApoE (SEQ ID NO: 13) peptide moieties was evaluated for non-covalent transport of a protein across the BBB. For this, β-galactosidase was mixed with either the ApoE peptide, the peptide K16 (SEQ ID NO: 4), ApoE plus K16 (SEQ ID NO: 4) or with K16ApoE (SEQ ID NO: 22), and injected in mice."}, "BBB [2]": {"test_system": "BBB", "parameters": "species or system mice", "conditions": "mouse, in vivo", "procedure": "FIG. 8 illustrates the testing mutant ApoE peptides for their potential as non-covalent transporters of proteins across the BBB. A—no peptide, no β-gal; B—K16ApoE (SEQ ID NO: 22)+β-gal; C—K16L3N7 (SEQ ID NO: 126)+β-gal; D—K16L3L20 (SEQ ID NO: 127)+β-gal; E—K16N7L20 (SEQ ID NO: 128)+β-gal.\nβ-galactosidase was mixed with equal amounts of various peptide transporters and injected into mice. Slides were prepared using 25 μm sections of the mice brains one hour after injection followed by development of enzyme staining (FIG. 8)."}, "BBB [3]": {"test_system": "BBB", "parameters": "species or system mice", "conditions": "mouse, in vivo", "procedure": "The delivery of radiolabeled IgG across the BBB in different brain regions in mice with and without the peptide K16ApoE (SEQ ID NO:22) was evaluated. In addition, the integrity of the BBB after delivery of IgG with K16ApoE (SEQ ID NO: 22) was examined. […] of ^125I-IgG were mixed with varying amounts of the peptide K16ApoE (SEQ ID NO: 22) (0-55 μmol), and the mixture injected intravenously into the mice. ^131I-IgG not complexed with the peptide was injected into the same animals at 59 minutes and allowed to circulate for 1 minute subsequent to the initial femoral vein injection of ^125I-IgG+K16ApoE (SEQ ID NO: 22). Uptake of ^125I-IgG and ^131I-IgG were measured in different areas of the brain after 60 minutes.\nPS values reflect the amount of ^125I-IgG that has crossed the BBB, whereas Vp values indicate the amount of ^131I-IgG at the BBB but which has not crossed the BBB.", "remark": "listed apart in the source"}, "BBB [4]": {"test_system": "BBB", "parameters": "species or system mice", "conditions": "mouse, in vivo", "procedure": "Each mouse (represented by A through G) received an injection of K16ApoE (SEQ ID NO: 22), followed by injection of β-galactosidase at the indicated times. Brain slices were made 4 hours after β-galactosidase injection and were followed by staining for activity of the enzyme. A—β-galactosidase was injected 1 minute after K16ApoE (SEQ ID NO: 22) injection. B—β-galactosidase was injected 5 minutes after K16ApoE (SEQ ID NO: 22) injection. C—β-galactosidase was injected 10 minutes after K16ApoE (SEQ ID NO: 22) injection. D—β-galactosidase was injected 30 minutes after K16ApoE (SEQ ID NO: 22) injection. E—β-galactosidase was injected 1 hour after K16ApoE (SEQ ID NO: 22) injection. F—β-galactosidase was injected 2 hours after K16ApoE (SEQ ID NO: 22) injection. G—β-galactosidase was injected 4 hours after K16ApoE (SEQ ID NO: 22) injection. H—positive control (β-galactosidase mixed with K16ApoE (SEQ ID NO: 22) was injected, brain slices were made 4 hours after the injection and proceeded for staining for enzyme activity).\nA transporter that efficiently carries a protein in the brain should not do so by impairing the integrity of the BBB. To evaluate if K16ApoE (SEQ ID NO: 22) impairs the integrity of the BBB, the peptide was first injected intravenously, then injected β-galactosidase at different time intervals. The control mice received the enzyme mixed with the peptide. […]", "remark": "listed apart in the source"}, "brain [5]": {"test_system": "brain", "test": "β-galactosidase delivery in brain, enzyme activity staining of brain slices", "type": "in vivo", "procedure": "Required amount of the peptide and protein were mixed in a final volume of 300 μL PBS (phosphate buffered saline), and incubated at room temperature for 60 minutes. The mixture was vortexed for a few seconds, every fifteen minutes during the incubation period.\nThe mixture was injected intravenously as a bolus into the lumen of the femoral vein. This was accomplished using a heat pulled PE50 catheter. At the conclusion of the experiment, the mouse was euthanized with a lethal dose of sodium pentobarbital. Each mouse was perfused with 10 mL PBS. This perfusion was accomplished through the standard trans cardial method. The brain was removed from the skull and positioned to make an initial coronal slice at −2.0 mm bregma. Subsequently, 25 μm coronal sections were cut on a cryostat and placed on charged slides for staining of β-galactosidase activity.\nEvaluation of β-galactosidase enzymatic activity was accomplished by an initial 15 minute fixation of the brain sections in 0.25% glutaraldehyde. The slides were washed with 3 changes of PBS for 5 minutes each and then rinsed in distilled water for 5 minutes. The brain sections were incubated in X-Gal (0.2%) working solution, pH 7.38, for 18 hours at 37° C. in covered containers. Following this incubation the sections were dehydrated and coverslips were applied.\nTo evaluate the potential of K16ApoE (SEQ ID NO: 22) for delivering a protein across the BBB, the enzyme β-galactosidase was injected in mice with or without prior mixing with K16ApoE (SEQ ID NO: 22) (at a protein to peptide molar ratio of 1:70). The experiment was repeated more than a dozen times. […] It is speculated that either X-gal or 5-bromo-4-chloroindole or both somehow leach out of this region faster than other regions of the brain resulting to a faint signal for β-galactosidase activity."}, "brain [6]": {"test_system": "brain", "parameters": "species or system mice", "conditions": "mouse, in vivo", "procedure": "FIG. 1 is a series of images illustrating the differences between delivery of Alexa-IgG complexed to K16ApoE (SEQ ID NO: 22) into brain and uncomplexed Alexa-IgG.\nIn this experiment, AlexaIgG488 was injected into mice with or without mixing with K16ApoE peptide (SEQ ID NO:22). Brain sections were made 1 hour after delivery."}, "mouse brain": {"test_system": "mouse brain", "test": "microSPECT imaging of delivery of radioiodinated human IgG and IgM", "type": "in vivo", "procedure": "Micro SPECT/CT experiments were conducted on a Gamma Medica X SPECT System (GE Healthcare). Human IgG (Sigma) and IgM (Sigma) were labeled to a high specific activity using the Chloramine-T method. […] Immediately subsequent to the intravenous bolus injection, the mice were imaged every hour for a total of 6 hours. At the completion of the 6 hour time point, each mouse was euthanized and the systemic blood supply was transcardially perfused with 10 mL phosphate buffered saline, and imaged after 30 minutes.\nSince many potentially therapeutic proteins against brain-associated disorders are immunoglobulins, delivery of IgG and IgM through K16ApoE (SEQ ID NO: 22) in mouse brain was evaluated by micro-single photon emission computed tomography (microSPECT) imaging. For this, radioiodinated human IgG (Sigma, product # I 4506) and human IgM (Sigma, product # I 8260) were mixed with K16ApoE (SEQ ID NO: 22) and injected intravenously. Anesthetized animals were then subjected to imaging for 6 hours at 1 hour interval. Cardiac perfusion was then performed, after which final imaging was done at 30 minutes post-perfusion. Results from these experiments provide a number of indications (FIG. 4): First, it appears that peak delivery of both IgG and IgM into brain happens around 2 hours post-injection of the peptide-protein mix, after which uptake of the proteins in the brain remains relatively unchanged up to 6 hours (maximum time point tested). Second, cardiac perfusion appears to remove most of the radioactive protein in the vasculature, concomitantly increasing the difference between apparent brain-uptake of the protein with and without the carrier peptide (˜5-fold)."}}, "note": "Where no end group is shown, it is not given here.", "data": [{"substance": "KKKKKKKKKKKKKKKK [K16, KKKKKKKKKKKKKKKK]", "values": [{"measurement": "β-galactosidase staining in brain sections", "setting": "BBB [1]", "result": "β-galactosidase staining only in slides from mice receiving β-galactosidase mixed with K16ApoE"}]}, {"substance": "KKKKKKKKKKKKKKKKLRLRLANHLRKLRKRLLRDA [mutant A, KKKK KKKK KKKK KKKK LRLR LANH LRKL RKRL LRDA]", "values": [{"measurement": "transport of β-galactosidase compared with wild-type ApoE blood-brain barrier agent", "setting": "BBB [2]", "result": "worse than the wild-type"}]}, {"substance": "KKKKKKKKKKKKKKKKLRLRLASHLRKLRKRLLRDL [mutant B, KKKK KKKK KKKK KKKK LRLR LASH LRKL RKRL LRDL]", "values": [{"measurement": "transport of β-galactosidase compared with wild-type ApoE blood-brain barrier agent", "setting": "BBB [2]", "result": "at least as well as wild-type or better"}]}, {"substance": "KKKKKKKKKKKKKKKKLRVRLANHLRKLRKRLLRDL [mutant C, KKKK KKKK KKKK KKKK LRVR LANH LRKL RKRL LRDL]", "values": [{"measurement": "transport of β-galactosidase compared with wild-type ApoE blood-brain barrier agent", "setting": "BBB [2]", "result": "at least as well as wild-type or better"}]}, {"substance": "KKKKKKKKKKKKKKKKLRVRLASHLRKLRKRLLRDA [K16ApoE, KKKKKKKKKKKKKKKKLRVRLASHLRKLRKRLLRDA]", "values": [{"measurement": "Vp values in all the brain regions examined (in words)", "setting": "BBB [3]", "result": "virtually unchanged"}, {"measurement": "damage of the BBB due to prior exposure to the peptide", "setting": "BBB [3]", "result": "not damaged"}, {"measurement": "effect of the peptide by itself on the BBB", "setting": "BBB [4]", "result": "did not seem to affect the BBB"}, {"measurement": "time until binding of injected peptide to proteins and cells in the circulation is virtually complete", "setting": "BBB [4]; iv", "result": "≤ 10", "unit": "min"}, {"measurement": "areas of the brain reached by the delivered β-galactosidase", "setting": "brain [5]; mouse, in vivo", "result": "virtually every area of the brain"}, {"measurement": "β-galactosidase activity in brain", "setting": "brain [5]; mouse, in vivo", "result": "intense β-galactosidase activity"}, {"measurement": "contrast and enhancement of brain structures compared to uncomplexed AlexaIgG488", "setting": "brain [6]", "result": "significantly brighter contrast and enhancement of brain structures"}, {"measurement": "share of the injected immunoglobulins transported into the brain", "setting": "mouse brain; IgG and IgM, under the experimental condition", "result": "about 1%"}, {"measurement": "difference between brain-uptake of the protein with and without the carrier peptide", "setting": "mouse brain; IgG and IgM, after cardiac perfusion", "result": "~5", "unit": "fold"}, {"measurement": "time of peak delivery of IgG and IgM into brain", "setting": "mouse brain; post-injection of peptide-protein mix, 70-fold molar excess of peptide, FIG. 4", "result": "around 2 hours"}]}, {"substance": "β-galactosidase: Bacterial β-galactosidase purchased from Calbiochem, enzyme injected alone [reference compound]", "values": [{"measurement": "β-galactosidase activity in brain", "setting": "brain [5]; protein to peptide molar ratio 1:70 or enzyme alone, slices 6 hours after injection, FIG. 3A", "result": "no activity"}]}]}
